Results taken from patent US9512107B2, “Therapeutically active compositions and their methods of use” (Agios Pharmaceuticals, Inc., priority 2012, dated 2016).
Changes are numbered by the printed parent chain.

What was measured:
[1] = target: T1, IDH2 R140Q (Homo sapiens, UniProt P48735, R140Q); assay: IDH2 R140Q enzymatic assay (cofactor depletion, similar format); format: biochemical; conditions: read-out: Enz R140Q
T1 sequence (P48735 40-452 R140Q): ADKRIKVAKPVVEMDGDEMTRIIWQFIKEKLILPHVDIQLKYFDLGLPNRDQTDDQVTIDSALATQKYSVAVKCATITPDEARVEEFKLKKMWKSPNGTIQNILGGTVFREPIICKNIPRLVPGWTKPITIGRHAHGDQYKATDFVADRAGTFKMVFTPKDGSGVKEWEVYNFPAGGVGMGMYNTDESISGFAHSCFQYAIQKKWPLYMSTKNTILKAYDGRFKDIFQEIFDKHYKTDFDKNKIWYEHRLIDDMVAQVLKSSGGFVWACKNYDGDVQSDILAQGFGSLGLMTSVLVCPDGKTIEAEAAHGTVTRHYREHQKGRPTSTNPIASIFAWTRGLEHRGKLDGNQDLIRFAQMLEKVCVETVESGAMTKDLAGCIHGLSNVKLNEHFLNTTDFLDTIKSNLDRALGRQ

[2] = system: U87MG pLVX-IDH2 R140Q-neo cells; assay: U87MG pLVX-IDH2 R140Q-neo cell based assay, 2-HG in media by LC-MS at 48 hours; conditions: Homo sapiens, U-87 MG
Procedure, shortened: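 2-HG secreted into the medium was measured by LC-MS after 48 h of compound treatment (0.2% DMSO final) of U87MG pLVX-IDH2 R140Q-neo cells in DMEM/10% FBS. The same wells were assayed at 72 h by CellTiter-Glo luminescence for effects on growth.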

[3] = target: T2, IDH2 R172K (Homo sapiens, UniProt P48735, R172K); assay: IDH2 R172K enzymatic assay (NADPH cofactor depletion, diaphorase/resazurin readout); format: biochemical; conditions: read-out: Enz R172K
T2 sequence (P48735 40-452 R172K): T1 sequence (P48735 40-452 R140Q) with Q101R, R133K
Procedure, shortened: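 Residual NADPH is read out as resorufin fluorescence after quenching with 36 μg/ml diaphorase and 60 μM resazurin in stop mix. The stop follows a 1 h room-temperature reaction started by a substrate mix of NADPH (50 μM) and α-KG (6.3 mM), with compound preincubated with enzyme for 1 h beforehand.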

| IC50 [1] | IC50 [2] | IC50 [3] | SMILES |
| --- | --- | --- | --- |
| < 100 nM | 100 to 1000 nM | 100 to 1000 nM | c1ccc(-c2nc(NCC3CC3)nc(Nc3ccncc3)n2)cc1 [Compound 216, N^2-(cyclopropylmethyl)-6-phenyl-N^4-(pyridin-4-yl)-1,3,5-triazine-2,4-diamine] |
| < 100 nM | 100 to 1000 nM | 1000 to 10000 nM | CC1(Nc2nc(Nc3ccncc3)nc(-c3ccccc3)n2)CC1 [Compound 218, N^2-(1-methylcyclopropyl)-6-phenyl-N^4-(pyridin-4-yl)-1,3,5-triazine-2,4-diamine] |
| < 100 nM | < 100 nM | 100 to 1000 nM | CC1CC1Nc1nc(Nc2ccncc2)nc(-c2ccccc2)n1 (stereo not drawn) [Compound 219, N^2-(2-methylcyclopropyl)-6-phenyl-N^4-(pyridin-4-yl)-1,3,5-triazine-2,4-diamine] |
| < 100 nM | < 100 nM | 100 to 1000 nM | CCC(C)CNc1nc(Nc2ccncc2)nc(-c2ccccc2)n1 (stereo not drawn) [Compound 220, N^2-(2-methylbutyl)-6-phenyl-N^4-(pyridin-4-yl)-1,3,5-triazine-2,4-diamine] |
| 100 to 1000 nM | 100 to 1000 nM | 1000 to 10000 nM | CC1(CNc2nc(Nc3ccncc3)nc(-c3ccccc3)n2)CCCO1 (stereo not drawn) [Compound 221, N^2-((2-methyltetrahydrofuran-2-yl)methyl)-6-phenyl-N^4-(pyridin-4-yl)-1,3,5-triazine-2,4-diamine] |
| < 100 nM | < 100 nM | < 100 nM | CC(C)Nc1nc(Nc2ccnc(F)c2)nc(-c2ccccc2)n1 [Compound 223, N^2-(2-fluoropyridin-4-yl)-N^4-isopropyl-6-phenyl-1,3,5-triazine-2,4-diamine] |
| < 100 nM | 100 to 1000 nM | 100 to 1000 nM | CCNc1cc(Nc2nc(NC(C)C)nc(-c3ccccc3)n2)ccn1 [Compound 224, N^2-(2-(ethylamino)pyridin-4-yl)-N^4-isopropyl-6-phenyl-1,3,5-triazine-2,4-diamine] |
| < 100 nM | 100 to 1000 nM | 1000 to 10000 nM | COCCNc1nc(Nc2ccccc2)nc(-c2ccccc2)n1 [Compound 225, N^2-(2-methoxyethyl)-N^4,6-diphenyl-1,3,5-triazine-2,4-diamine] |
| < 100 nM | 100 to 1000 nM | 100 to 1000 nM | CC(C)Nc1nc(Nc2ccncc2)nc(-c2ccccc2Cl)n1 [Compound 226, 6-(2-chlorophenyl)-N^2-isopropyl-N^4-(pyridin-4-yl)-1,3,5-triazine-2,4-diamine] |
| < 100 nM | < 100 nM | 100 to 1000 nM | CC(C)Nc1nc(Nc2ccncc2)nc(-c2ccccc2F)n1 [Compound 227, 6-(2-fluorophenyl)-N^2-isopropyl-N^4-(pyridin-4-yl)-1,3,5-triazine-2,4-diamine] |
| < 100 nM | 100 to 1000 nM | 100 to 1000 nM | CC(C)Nc1nc(Nc2ccccc2)nc(-c2cc(Cl)ccn2)n1 [Compound 228, 6-(4-chloropyridin-2-yl)-N^2-isopropyl-N^4-phenyl-1,3,5-triazine-2,4-diamine] |
| < 100 nM | < 100 nM | < 100 nM | CC(C)Nc1nc(Nc2ccccc2)nc(-c2cccc(Cl)n2)n1 [Compound 229, 6-(6-chloropyridin-2-yl)-N^2-isopropyl-N^4-phenyl-1,3,5-triazine-2,4-diamine] |
| 100 to 1000 nM | 100 to 1000 nM | 100 to 1000 nM | CC(C)Nc1nc(Nc2ccccc2)nc(-c2ncccc2Cl)n1 [Compound 230, 6-(3-chloropyridin-2-yl)-N^2-isopropyl-N^4-phenyl-1,3,5-triazine-2,4-diamine] |
| < 100 nM | 100 to 1000 nM | 100 to 1000 nM | O=C(Nc1nc(Nc2ccccc2)nc(-c2ccccc2)n1)OCC1CC1 [Compound 232, cyclopropylmethyl 4-phenyl-6-(phenylamino)-1,3,5-triazin-2-ylcarbamate] |
| < 100 nM | < 100 nM | 100 to 1000 nM | O=C(Nc1nc(Nc2ccccc2)nc(-c2ccccc2)n1)C1CC1 [Compound 233, N-(4-phenyl-6-(phenylamino)-1,3,5-triazin-2-yl)cyclopropanecarboxamide] |
| 100 to 1000 nM | 100 to 1000 nM | 1000 to 10000 nM | c1ccc(-c2nc(Nc3ccncc3)nc(NC3CCOC3)n2)cc1 (stereo not drawn) [Compound 235, 6-phenyl-N^2-(pyridin-4-yl)-N^4-(tetrahydrofuran-3-yl)-1,3,5-triazine-2,4-diamine] |

| IC50 [1] | IC50 [2] | IC50 [3] | SMILES |
| --- | --- | --- | --- |
| 100 to 1000 nM | 100 to 1000 nM | 1000 to 10000 nM | c1ccc(-c2nc(Nc3ccncc3)nc(NC3COC3)n2)cc1 [Compound 236, N^2-(oxetan-3-yl)-6-phenyl-N^4-(pyridin-4-yl)-1,3,5-triazine-2,4-diamine] |
| 100 to 1000 nM | 100 to 1000 nM | 1000 to 10000 nM | c1ccc(Nc2nc(NCC3CCO3)nc(-c3ccccc3)n2)cc1 (stereo not drawn) [Compound 237, N^2-(oxetan-2-ylmethyl)-N^4,6-diphenyl-1,3,5-triazine-2,4-diamine] |
| 100 to 1000 nM | 100 to 1000 nM | 1000 to 10000 nM | OCCNc1nc(Nc2ccccc2)nc(-c2ccccc2)n1 [Compound 238, 2-(4-phenyl-6-(phenylamino)-1,3,5-triazin-2-ylamino)ethanol] |
| < 100 nM | < 100 nM | 100 to 1000 nM | CC(C)(CO)CNc1nc(Nc2ccccc2)nc(-c2ccccc2)n1 [Compound 239, 2,2-dimethyl-3-(4-phenyl-6-(phenylamino)-1,3,5-triazin-2-ylamino)propan-1-ol] |
| < 100 nM | 100 to 1000 nM | 1000 to 10000 nM | CC(O)CNc1nc(Nc2ccccc2)nc(-c2ccccc2)n1 (stereo not drawn) [Compound 240, 1-(4-phenyl-6-(phenylamino)-1,3,5-triazin-2-ylamino)propan-2-ol] |
| < 100 nM | 100 to 1000 nM | 1000 to 10000 nM | CC(CO)Nc1nc(Nc2ccccc2)nc(-c2ccccc2)n1 (stereo not drawn) [Compound 241, 2-(4-phenyl-6-(phenylamino)-1,3,5-triazin-2-ylamino)propan-1-ol] |
| 100 to 1000 nM | 100 to 1000 nM | 1000 to 10000 nM | CC(C)C(CO)Nc1nc(Nc2ccccc2)nc(-c2ccccc2)n1 (stereo not drawn) [Compound 242, 3-methyl-2-(4-phenyl-6-(phenylamino)-1,3,5-triazin-2-ylamino)butan-1-ol] |
| 100 to 1000 nM | 1000 to 10000 nM | 100 to 1000 nM | CC(C)OCC(=O)Nc1nc(Nc2ccccc2)nc(-c2ccccc2)n1 [Compound 244, 2-isopropoxy-N-(4-phenyl-6-(phenylamino)-1,3,5-triazin-2-yl)acetamide] |
| < 100 nM | 100 to 1000 nM | 100 to 1000 nM | CC1(C(=O)Nc2nc(Nc3ccccc3)nc(-c3ccccc3)n2)CC1 [Compound 245] |
| 100 to 1000 nM | < 100 nM | 100 to 1000 nM | CC(C)Nc1nc(Nc2cccc(C#N)c2)nc(-c2ccccn2)n1 [Compound 246, 3-(4-(isopropylamino)-6-(pyridin-2-yl)-1,3,5-triazin-2-ylamino)benzonitrile] |
| < 100 nM | < 100 nM | < 100 nM | CC(C)Nc1nc(Nc2ccccc2)nc(-c2cccc(C(F)(F)F)n2)n1 [Compound 247, N^2-isopropyl-N^4-phenyl-6-(6-(trifluoromethyl)pyridin-2-yl)-1,3,5-triazine-2,4-diamine] |
| < 100 nM | 100 to 1000 nM | 1000 to 10000 nM | CCNc1nc(Nc2ccncc2)nc(-c2ccccc2)n1 [Compound 248, N^2-ethyl-6-phenyl-N^4-(pyridin-4-yl)-1,3,5-triazine-2,4-diamine] |
| < 100 nM | 100 to 1000 nM | 100 to 1000 nM | CCCNc1nc(Nc2ccncc2)nc(-c2ccccc2)n1 [Compound 249, 6-phenyl-N^2-propyl-N^4-(pyridin-4-yl)-1,3,5-triazine-2,4-diamine] |
| < 100 nM | 100 to 1000 nM | 100 to 1000 nM | c1ccc(-c2nc(NCC3CCC3)nc(Nc3ccncc3)n2)cc1 [Compound 250, N^2-(cyclobutylmethyl)-6-phenyl-N^4-(pyridin-4-yl)-1,3,5-triazine-2,4-diamine] |
| < 100 nM | < 100 nM | 100 to 1000 nM | FC1(F)CC(Nc2nc(Nc3ccncc3)nc(-c3ccccc3)n2)C1 [Compound 253, N^2-(3,3-difluorocyclobutyl)-6-phenyl-N^4-(pyridin-4-yl)-1,3,5-triazine-2,4-diamine] |
